Laboratory results: article PMC13192270, “RhlR quorum-sensing receptor ligand sensitivity regulates the differential expression of phenazine genes in Pseudomonas aeruginosa” (Journal of Bacteriology, 2026)

Test system: ΔrhlI strain expressing RhlR T58L
Assay: RNA-seq gene expression
Format: cell-based, Pseudomonas aeruginosa
Set-up: opmD Expression value / mexI Expression value / mexH Expression value / mexG Expression value / lasB Expression value / rhlA Expression value / rhlB Expression value / rhlR Expression value / lecB Expression value / fhp Expression value / chiC Expression value / hcnA Expression value / mvfR Expression value / katB Expression value / norC Expression value / norB Expression value / katA Expression value: unit not given here
Details: 2 µM C4HSL
Description: To determine the effects of hypo- and hypersensitivity to C4HSL on RhlR-dependent transcription activation in P. aeruginosa, we performed RNA-seq on ΔrhlI strains expressing WT RhlR, RhlR T58L, and RhlR A44M in the presence of 2 µM C4HSL. We chose this approach to better control the levels of C4HSL across samples. All gene expression analyses were done relative to a ΔrhlI strain without exogenous supplementation of AHL. Thus, we examined the total increase in C4HSL-dependent gene regulation. We observed increased rhlA RNA levels in strains expressing WT RhlR and the RhlR T58L variant compared to ΔrhlI without C4HSL or a strain expressing the RhlR A44M variant (Table 2; Table S1). […] To corroborate our RNA-seq data, we built an rhlA promoter fusion to mScarlet and assayed reporter levels in the same genetic backgrounds as our transcriptomic experiment (Fig. S7D). Strains expressing hypersensitive RhlR variants produced similar levels of fluorescent signal relative to the WT strain, while a strain expressing a hyposensitive RhlR variant had diminished levels of fluorescent reporter (Fig. S7D).
A total of […] of overnight cultures was back diluted 1:100 in 20 mL of fresh LB media and incubated for 5 h at 37°C with shaking. Cells were harvested by centrifugation, and pellets were frozen until RNA extraction. RNA was extracted using the Invitrogen PureLink RNA Mini Kit. Pellets were resuspended in 100 µL lysozyme solution containing 10 mM Tris-HCl pH 8.0, 0.1 mM EDTA, and 1 mg/mL lysozyme. Five microliters of 1% SDS was added, and the solution was mixed with a vortex and incubated at room temperature for 5 min. A total of 350 µL lysis buffer (Invitrogen) was added with 10 µL 2-mercaptoethanol for each 1 mL of lysis buffer and vortexed. Cells were lysed by bead beating (BioSpec 0.1 MM Zirconia/Silica Beads) for two rounds of 50 s. Lysed cells were transferred to fresh microcentrifuge tubes with 250 µL of 100% ethanol and mixed with a vortex. Samples were spun in spin cartridges (Invitrogen) at 12,000 × g for 15 s at room temperature, and the flow-through was discarded. A total of 700 µL Wash Buffer I (Invitrogen) was added and spun at 12,000 × g for 15 s at room temperature, and the flow-through was discarded. A total of 500 µL Wash Buffer II (Invitrogen) with ethanol was added and centrifuged for 12,000 × g for 15 s at room temperature; the flow-through was discarded, and RNA samples were washed again. Cells were spun at 12,000 × g for 1 min at room temperature to dry the membrane with the bound RNA. A total of 50 µL RNAse-free water was added to the center of the spin cartridge, incubated at room temperature for 1 min, and centrifuged for 2 min at ≥12,000 × g at room temperature. Extracted RNA was then frozen at −80°C until further use.
Bulk RNA was sent to SeqCenter (Pittsburgh, PA) where it was processed for paired-end Illumina sequencing via rRNA depletion using Ribo-Zero Plus (Illumina). Fastq files generated by SeqCenter were processed using Rockhopper with default settings ([61][–][63]). Briefly, fastq files were aligned to the genome of Pseudomonas aeruginosa UCBPP-PA14. The reads were subsequently normalized using upper-quartile normalization, and transcript abundance was determined by reads per kilobase per million mapped reads. Differential gene expression analysis was conducted using a negative binomial distribution model, outputting a P-value for each transcript. The P-values were then corrected for false discovery using the Benjamini-Hochberg procedure, resulting in the q-values reported here (Table S2). SignalMap v2.0 (NimbleGen Systems) was used to visualize read counts for phzABCDEFG1/2, phzH, phzM, and phzS (Fig. 5). Aligned sequences generated in Rockhopper were converted to GFF files, and genes of interest were isolated into unique GFF files ([37]).

CCCC(=O)N[C@H]1CCOC1=O [C4HSL, N-butyryl-L-homoserine lactone]
chiC Expression value: 3,615,357
fhp Expression value: 396,561.5
hcnA Expression value: 9,523
katA Expression value: 12,151,161
katB Expression value: 2,895,168
lasB Expression value: 19,328,123.5
lecB Expression value: 250,651
mexG Expression value: 332,571.5
mexH Expression value: 723,774.5
mexI Expression value: 830,527.5
mvfR Expression value: 267,969
norB Expression value: 7,897,306
norC Expression value: 3,026,578.5
opmD Expression value: 525,347
phnA Expression value: 1,406,882.5
phnB Expression value: 434,424
phzA1 Expression value: 6,068
phzA2 Expression value: 61,057.5
phzB1 Expression value: 73,793
phzB2 Expression value: 1,991,168
phzC1 Expression value: 272,395.5
phzC2 Expression value: 1,969,682.5
phzD1 Expression value: 1,058,250
phzD2 Expression value: 977,075.5
phzE1 Expression value: 2,058,712.5
phzE2 Expression value: 1,532,300.5
phzF1 Expression value: 1,047,752.5
phzF2 Expression value: 1,048,278.5
phzG1 Expression value: 312,421.5
phzG2 Expression value: 1,165,545
phzM Expression value: 79,302.5
phzS Expression value: 377,065.5
pqsA Expression value: 870,485.5
pqsB Expression value: 2,171,803.5
pqsC Expression value: 2,097,049
pqsD Expression value: 2,742,260
pqsE Expression value: 1,483,216.5
rhlA Expression value: 879,447.5
rhlB Expression value: 741,717
rhlR Expression value: 906,213
chiC Log2fold change (vs ΔrhlI without AHL): 4.706
fhp Log2fold change (vs ΔrhlI without AHL): 5.681
hcnA Log2fold change (vs ΔrhlI without AHL): −1.753
katA Log2fold change (vs ΔrhlI without AHL): 1.97
katB Log2fold change (vs ΔrhlI without AHL): 7.877
lasB Log2fold change (vs ΔrhlI without AHL): 2.595
lecB Log2fold change (vs ΔrhlI without AHL): −0.51
mexG Log2fold change (vs ΔrhlI without AHL): 6.357
mexH Log2fold change (vs ΔrhlI without AHL): 6.234
mexI Log2fold change (vs ΔrhlI without AHL): 5.568
mvfR Log2fold change (vs ΔrhlI without AHL): 0.187
norB Log2fold change (vs ΔrhlI without AHL): 7.599
norC Log2fold change (vs ΔrhlI without AHL): 7.238
opmD Log2fold change (vs ΔrhlI without AHL): 6.207
phnA Log2fold change (vs ΔrhlI without AHL): −0.7187
phnB Log2fold change (vs ΔrhlI without AHL): −0.4007
phzA1 Log2fold change (vs ΔrhlI without AHL): −2.305
phzA2 Log2fold change (vs ΔrhlI without AHL): 2.537
phzB1 Log2fold change (vs ΔrhlI without AHL): −2.194
phzB2 Log2fold change (vs ΔrhlI without AHL): 3.237
phzC1 Log2fold change (vs ΔrhlI without AHL): 0.3098
phzC2 Log2fold change (vs ΔrhlI without AHL): 3.428
phzD1 Log2fold change (vs ΔrhlI without AHL): 2.278
phzD2 Log2fold change (vs ΔrhlI without AHL): 2.374
phzE1 Log2fold change (vs ΔrhlI without AHL): 2.344
phzE2 Log2fold change (vs ΔrhlI without AHL): 2.345
phzF1 Log2fold change (vs ΔrhlI without AHL): 2.194
phzF2 Log2fold change (vs ΔrhlI without AHL): 2.188
phzG1 Log2fold change (vs ΔrhlI without AHL): 0.6164
phzG2 Log2fold change (vs ΔrhlI without AHL): 3.389
phzM Log2fold change (vs ΔrhlI without AHL): −2.128
phzS Log2fold change (vs ΔrhlI without AHL): −0.989
pqsA Log2fold change (vs ΔrhlI without AHL): −1.603
pqsB Log2fold change (vs ΔrhlI without AHL): −0.7949
pqsC Log2fold change (vs ΔrhlI without AHL): −0.8699
pqsD Log2fold change (vs ΔrhlI without AHL): −0.6876
pqsE Log2fold change (vs ΔrhlI without AHL): −0.7631
rhlA Log2fold change (vs ΔrhlI without AHL): 1.8
rhlB Log2fold change (vs ΔrhlI without AHL): 2.488
rhlR Log2fold change (vs ΔrhlI without AHL): 0.5062
